According to patent publication US4160829A, “Antibacterial 1,2,4-oxadiazolylacetamido cephalosporins” (Gist-Brocades N.V., priority 1972, dated 1979):
Converted amounts (≈) assume the structure as drawn. Read-outs that look alike come from different tables or passages of the source.

How the values were obtained:
[1] = tested on: Salm.typh. R 127; assay: agar serial dilution test; assay type: cell-based; conditions: 24 h, 37° C., read-out: minimal inhibitory concentration (MIC)
[2] = tested on: Dipl.pneum. L 54; assay: agar serial dilution test; assay type: cell-based, Diplococcus pneumoniae; conditions: Streptococcus pneumoniae; agar serial dilution, 24 hours, 37° C.; read-out: minimal inhibitory concentration (MIC)
[3] = tested on: Salm.dubl. P 43; assay: agar serial dilution test; assay type: cell-based, Salmonella dublin; conditions: Salmonella enterica; agar serial dilution, 24 hours, 37° C.; read-out: minimal inhibitory concentration (MIC)
[4] = tested on: Staph.aureus A 355; assay: micro serial dilution test; assay type: cell-based, Staphylococcus aureus; conditions: Staphylococcus aureus, A355; micro serial dilution (in brackets), about 18 hours, 30° C. or 37° C.; penicillinase-producing strain; read-out: minimal inhibitory concentration (MIC)
[5] = tested on: Staph.aureus A 2000; assay: agar serial dilution test; assay type: cell-based, Staphylococcus aureus; conditions: Staphylococcus aureus, A2000, 24 h, agar serial dilution, 24 hours, 37° C.; read-out: minimal inhibitory concentration (MIC)
[6] = tested on: Kleb.pneum. A 809; assay: agar serial dilution test; assay type: cell-based, Klebsiella pneumoniae; conditions: Klebsiella pneumoniae; agar serial dilution, 24 hours, 37° C.; read-out: minimal inhibitory concentration (MIC)
[7] = tested on: Staph.aureus A 321; assay: agar serial dilution test; assay type: cell-based, Staphylococcus aureus; conditions: Staphylococcus aureus, A321, 24 h, agar serial dilution, 24 hours, 37° C.; read-out: minimal inhibitory concentration (MIC)
[8] = tested on: Staph.aureus A 2001; assay: agar serial dilution test; assay type: cell-based, Staphylococcus aureus; conditions: Staphylococcus aureus, A2001, 24 h, agar serial dilution, 24 hours, 37° C.; read-out: minimal inhibitory concentration (MIC)
[9] = tested on: Staph.aureus A 2000; assay: micro serial dilution test; assay type: cell-based, Staphylococcus aureus; conditions: Staphylococcus aureus, A2000, 18 h, micro serial dilution (in brackets), about 18 hours, 30° C. or 37° C.; read-out: minimal inhibitory concentration (MIC)
[10] = tested on: Bac.Subt.ATCC 6633; assay: agar serial dilution test; assay type: cell-based, Bacillus subtilis; conditions: Bacillus subtilis, ATCC6633, 24 h, agar serial dilution, 24 hours, 37° C.; read-out: minimal inhibitory concentration (MIC)
[11] = tested on: Pseud.aerug. H 10; assay: agar serial dilution test; assay type: cell-based; conditions: agar serial dilution, 24 hours, 37° C.; read-out: minimal inhibitory concentration (MIC)
[12] = tested on: Strep. faec. L 80; assay: agar serial dilution test; assay type: cell-based, Streptococcus faecalis; conditions: Enterococcus faecalis; agar serial dilution, 24 hours, 37° C.; read-out: minimal inhibitory concentration (MIC)
[13] = tested on: Pseud.aerug. Wyeth A 1058; assay: agar serial dilution test; assay type: cell-based; conditions: agar serial dilution, 24 hours, 37° C.; read-out: minimal inhibitory concentration (MIC)
[14] = tested on: Prot.mirab. L 93; assay: agar serial dilution test; assay type: cell-based, Proteus mirabilis; conditions: Proteus mirabilis; agar serial dilution, 24 hours, 37° C.; read-out: minimal inhibitory concentration (MIC)
[15] = tested on: Past.multo. A 723; assay: agar serial dilution test; assay type: cell-based, Pasteurella multocida; conditions: Pasteurella multocida; agar serial dilution, 24 hours, 37° C.; read-out: minimal inhibitory concentration (MIC)
[16] = tested on: Prot.rettg. A 821; assay: micro serial dilution test; assay type: cell-based, Proteus rettgeri; conditions: Providencia rettgeri; micro serial dilution (in brackets), about 18 hours, 30° C. or 37° C.; read-out: minimal inhibitory concentration (MIC)
[17] = tested on: Prot.mirab. H 3; assay: agar serial dilution test; assay type: cell-based, Proteus mirabilis; conditions: Proteus mirabilis; agar serial dilution, 24 hours, 37° C.; read-out: minimal inhibitory concentration (MIC)
[18] = tested on: Staph.aureus A 355; assay: agar serial dilution test; conditions: Staphylococcus aureus, A355, 24 h, read-out: minimal inhibitory concentration (MIC), agar serial dilution, 24 hours, 37° C.; penicillinase-producing strain
[19] = tested on: Staph.aureus A 2001; assay: micro serial dilution test; assay type: cell-based, Staphylococcus aureus; conditions: Staphylococcus aureus, A2001, 18 h, micro serial dilution (in brackets), about 18 hours, 30° C. or 37° C.; read-out: minimal inhibitory concentration (MIC)
[20] = tested on: Prot.morg. 2241; assay: agar serial dilution test; assay type: cell-based; conditions: 24 h, agar serial dilution, 24 hours, 37° C.; read-out: minimal inhibitory concentration (MIC)
[21] = tested on: Esch.coli U 20; assay: agar serial dilution test; assay type: cell-based, Escherichia coli; conditions: Escherichia coli
[22] = tested on: Prot.mirab. A 1200; assay: agar serial dilution test; assay type: cell-based, Proteus mirabilis; conditions: Proteus mirabilis, 24 h, agar serial dilution, 24 hours, 37° C.; read-out: minimal inhibitory concentration (MIC)
[23] = tested on: Pseud.aerug. 2396; assay: agar serial dilution test; assay type: cell-based; conditions: agar serial dilution, 24 hours, 37° C.; read-out: minimal inhibitory concentration (MIC)
[24] = tested on: Bruc.melit. A 488; assay: microbe, parasite or virus in culture; assay type: cell-based; conditions: Brucella melitensis, 24 h, read-out: minimal inhibitory concentration (MIC)
[25] = tested on: Strep.haem. A 266; assay: micro serial dilution test; assay type: cell-based, Streptococcus haemolyticus; conditions: Streptococcus; micro serial dilution (in brackets), about 18 hours, 30° C. or 37° C.; read-out: minimal inhibitory concentration (MIC)
[26] = tested on: Prot.rettg. A 821; assay: agar serial dilution test; assay type: cell-based, Proteus rettgeri; conditions: Providencia rettgeri, 24 h, read-out: minimal inhibitory concentration (MIC)
[27] = tested on: Shig.equir. T 3; assay: agar serial dilution test; assay type: cell-based; conditions: 24 h, 37° C., read-out: minimal inhibitory concentration (MIC)
[28] = tested on: Haem.infl. A 1030; assay: micro serial dilution test; assay type: cell-based; conditions: 18 h, micro serial dilution (in brackets), about 18 hours, 30° C. or 37° C.; read-out: minimal inhibitory concentration (MIC)
[29] = tested on: Strep.haem. A 266; assay: agar serial dilution test; assay type: cell-based, Streptococcus haemolyticus; conditions: Streptococcus; agar serial dilution, 24 hours, 37° C.; read-out: minimal inhibitory concentration (MIC)
[30] = blood and urine contents after intramuscular administration in rabbits; assay type: in vivo, rabbits "Nieuw Zeelander"; conditions: rabbit, im, intramuscular 50 mg/kg
Description: (d) the blood and urine contents of the above-indicated compound G and of monosodium 7-[(3-carboxymethyl-1,2,4-oxadiazol-5-yl)acetamido]-3-acetoxymethyl-3-cephem-4-carboxylate (as prepared in example 35) were determined after intramuscular administration of these compounds in an aqueous solution in rabbits, as listed below:
test animals: rabbits "Nieuw Zeelander"
Each testgroup consisted of 3 rabbits.
Vehiculum: Physiol. saline solution
Bloodsamples were taken after 1/4--1/2--1--2--4 hours Urinesamples were taken after 1--3--6--24--27 hours (in practice only the secreted amounts after 6 and 24 hours were used).
Testorganisms: Bacillus subtilis ATCC 6633 and Bacillus callidolactis E 16.
The contents of the compounds in the samples were determined microbiologically.
(Only microbiologically detected concentrations, i.e. anti-bacterially active concentrations only have been indicated and determined in relation to the original administered compound).

[31] = U20, agar serial dilution, 24 hours, 37° C., read-out: minimal inhibitory concentration (MIC)
[32] = agar serial dilution, 24 hours, 37° C.

| Structure (SMILES) | MIC [1] [µg/mL] | MIC [2] [µg/mL] | MIC [3] [µg/mL] | MIC [4] [µg/mL] | MIC [5] [µg/mL] | MIC [6] [µg/mL] | MIC [7] [µg/mL] | MIC [8] [µg/mL] | MIC [9] [µg/mL] | MIC [10] [µg/mL] | MIC [11] [µg/mL] | MIC [12] [µg/mL] | MIC [13] [µg/mL] | MIC [14] [µg/mL] | MIC [15] [µg/mL] | MIC [17] [µg/mL] | MIC [18] [µg/mL] | MIC [19] [µg/mL] | MIC [20] [µg/mL] | MIC [22] [µg/mL] | also measured |
| --- | --- | --- | --- | --- | --- | --- | --- | --- | --- | --- | --- | --- | --- | --- | --- | --- | --- | --- | --- | --- | --- |
| Cc1nnc(SCC2=C(C(=O)O)N3C(=O)[C@@H](NC(=O)Cn4cnnn4)[C@H]3SC2)s1 [Cephazolin, reference compound] | 3 (≈ 6.6 µM) | 0.25 (≈ 0.55 µM) | 1.5 (≈ 3.3 µM) | 0.6 (≈ 1.32 µM) | 0.75 (≈ 1.65 µM) | 1.5 (≈ 3.3 µM) | 0.25 (≈ 0.55 µM) | 0.5 (≈ 1.1 µM) | 0.9 (≈ 1.98 µM) | 0.25 (≈ 0.55 µM) | > 100 | 12.5 (≈ 27.5 µM) | > 100 | 1.5 (≈ 3.3 µM) | 1.5 (≈ 3.3 µM) | 6 (≈ 13.2 µM) | 1.5 (≈ 3.3 µM) | 0.45 (≈ 0.99 µM) | 25 (≈ 55 µM) | 6 (≈ 13.2 µM) | MIC [16]: 1.2 µg/mL (≈ 2.64 µM); MIC [21, 31]: 1.5 µg/mL (≈ 3.3 µM); MIC [23]: > 100 µg/mL |
| CCc1noc(CC(=O)N[C@@H]2C(=O)N3[C@@H]2SC(C)(C)[C@@H]3C(=O)O)n1 [Example 11G, sodium 6-[(3-ethyl-1,2,4-oxadiazol-5-yl)-acetamido]-penicillanate H2 O] | 25 | 0.25 | 12.5 | 30 | 1.5 | > 100 | 0.12 | 1 | 23 | 0.03 | > 100 | 3 | > 100 | 12.5 | 1 | > 100 | 3 | 3.7 | > 100 | 100 | MIC [24]: 1.5 µg/mL; MIC [25]: 0.5 µg/mL; MIC [26, 32]: 3 µg/mL; MIC [27]: 10 µg/mL; MIC [28]: 125 µg/mL; MIC [21, 31]: 100 µg/mL; MIC [23]: > 100 µg/mL |
| Cc1nc(CC(=O)N[C@@H]2C(=O)N3C(C(=O)O)=C(CN=[N+]=[N-])C[S+]([O-])[C@H]23)no1 (some centres unmarked) [Example 19, R-sulfoxide of 7-[(5-methyl-1,2,4-oxadiazol-3-yl)-acetamido]-3-azidomethyl-3-cephem-4-carboxylic acid] | 100 (≈ 253 µM) | 3 (≈ 7.59 µM) | 25 (≈ 63.2 µM) | 15 (≈ 37.9 µM) | 6 (≈ 15.2 µM) | 50 (≈ 126 µM) | 6 (≈ 15.2 µM) | 6 (≈ 15.2 µM) | 5 (≈ 12.6 µM) | 0.5 (≈ 1.26 µM) | > 100 | > 100 | > 100 | 25 (≈ 63.2 µM) | 25 (≈ 63.2 µM) | 50 (≈ 126 µM) | 12.5 (≈ 31.6 µM) | 6 (≈ 15.2 µM) | > 100 | > 100 | MIC [24]: 6 µg/mL (≈ 15.2 µM); MIC [26, 32]: 6 µg/mL (≈ 15.2 µM); MIC [27]: 6 µg/mL (≈ 15.2 µM); MIC [28]: 23 µg/mL (≈ 58.2 µM); MIC [29]: 0.5 µg/mL (≈ 1.26 µM); MIC [21, 31]: 100 µg/mL (≈ 253 µM); MIC [23]: > 100 µg/mL |
| C=CCNC(=O)Cc1nc(CC(=O)N[C@@H]2C(=O)N3C(C(=O)O)=C(COC(C)=O)CS[C@H]23)no1 [Example 31, 7-[5-(N-propen-3-yl)-carbamoylmethyl-1,2,4-oxadiazol-3-yl-acetamido]-cephalosporanic acid] | 12.5 (≈ 26.1 µM) | 1.5 (≈ 3.13 µM) | 6 (≈ 12.5 µM) | 1.9 (≈ 3.96 µM) | 3 (≈ 6.26 µM) | 6 (≈ 12.5 µM) | 1.5 (≈ 3.13 µM) | 3 (≈ 6.26 µM) | 1.2 (≈ 2.5 µM) | 1 (≈ 2.09 µM) | > 100 | 25 (≈ 52.1 µM) | > 100 | 6 (≈ 12.5 µM) | 1.5 (≈ 3.13 µM) | 25 (≈ 52.1 µM) | 6 (≈ 12.5 µM) | 1.2 (≈ 2.5 µM) | > 100 | 25 (≈ 52.1 µM) | MIC [25]: 2.5 µg/mL (≈ 5.21 µM); MIC [26]: 12.5 µg/mL (≈ 26.1 µM); MIC [27]: 12.5 µg/mL (≈ 26.1 µM); MIC [28]: ≥ 125 µg/mL; MIC ([21]; U20, 24 h, read-out: minimal inhibitory concentration (MIC), agar serial dilution, 24 hours, 37° C.): 12.5 µg/mL (≈ 26.1 µM); MIC [23]: > 100 µg/mL |
| CC(=O)OCC1=C(C(=O)O)N2C(=O)[C@@H](NC(=O)Cc3nc(CC(=O)O)no3)[C@H]2SC1 [Example 35, Monosodium 7-[3-carboxymethyl-1,2,4-oxadiazol-5-yl-acetamido]-cephalosporanate] | – | – | – | – | – | – | – | – | – | – | – | – | – | – | – | – | – | – | – | – | concentration at 0.5 h ([30]; serum, after 1/2 hr, read-out: Serumlevel): 93.7 µg/mL; concentration at 0.25 h ([30]; serum, after 1/4 hr, read-out: Serumlevel): 119 µg/mL; concentration at 1 h ([30]; serum, after 1 hr, read-out: Serumlevel): 56 µg/mL; concentration at 2 h ([30]; serum, after 2 hr, read-out: Serumlevel): 15400 ng/mL; concentration at 4 h ([30]; serum, after 4 hr, read-out: Serumlevel): 1800 ng/mL; dose excreted at 6 h ([30]; urine, after 6 hr, read-out: Secretion of compound in urine in % of the administered dose): 35.9%; dose excreted at 24 h ([30]; urine, after 24 hr, read-out: Secretion of compound in urine in % of the administered dose): 51.4% |
